By EC50 is commonly meant the midpoint of the concentration-response curve. Higher therefore signals lower potency in that assay.

For the assay, the target named is human 5-HT2C(VSV) (Homo sapiens, UniProt P28335, I156V/I160V/N158S). Nature of the assay: cell-based.
human 5-HT2C(VSV), sequence (P28335 33-458 I156V/N158S/I160V limits assumed): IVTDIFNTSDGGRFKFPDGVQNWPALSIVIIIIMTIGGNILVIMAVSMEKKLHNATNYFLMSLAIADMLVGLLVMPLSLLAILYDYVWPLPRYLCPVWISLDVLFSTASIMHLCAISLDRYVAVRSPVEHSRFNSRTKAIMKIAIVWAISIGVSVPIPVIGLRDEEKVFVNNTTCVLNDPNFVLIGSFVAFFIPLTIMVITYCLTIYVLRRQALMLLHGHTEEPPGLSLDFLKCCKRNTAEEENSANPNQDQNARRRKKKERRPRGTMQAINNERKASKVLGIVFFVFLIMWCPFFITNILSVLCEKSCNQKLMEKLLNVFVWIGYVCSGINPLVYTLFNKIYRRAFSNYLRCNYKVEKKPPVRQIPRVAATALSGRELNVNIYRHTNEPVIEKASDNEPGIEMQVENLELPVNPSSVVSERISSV

With `CCn1cc(CCNCc2cccc(C(F)(F)F)c2)c2c(O)cc(F)cc21` [31-12, 1-ethyl-6-fluoro-3-(2-(3-(trifluoromethyl)benzylamino)ethyl)-1H-indol-4-ol], the EC50 is 1 to 500 nM.
The figure for `CCn1cc(CCN(C)C)c2c(OCc3ccncc3)cc(F)cc21` [1-18b, 2-(1-ethyl-6-fluoro-4-(pyridin-4-ylmethoxy)-1H-indol-3-yl)-N,N-dimethylethanamine] is 500 to 10000 nM.
`CCn1cc(CCNCCc2cccc(C(F)(F)F)c2)c2c(O)cc(F)cc21` [26-10, 1-ethyl-6-fluoro-3-(2-(3-(trifluoromethyl)phenethylamino)ethyl)-1H-indol-4-ol] showed a concentration for a half-maximal effect (EC50) of 1 to 500 nM.
For the compound `Cc1cccc(CNCCc2cn(C)c3ccc(F)c(O)c23)n1` [17-20, 5-fluoro-1-methyl-3-(2-(((6-methylpyridin-2-yl)methyl)amino)ethyl)-1H-indol-4-ol], the half-maximal effective concentration (EC50) was under 10000 nM.
The figure for `CNCCc1cn(C)c2ccc(F)c(OCc3ccccc3C(F)(F)F)c12` [33-31, 2-(5-fluoro-1-methyl-4-(2-(trifluoromethyl)benzyloxy)-1H-indol-3-yl)-N-methylethanamine] is 1 to 500 nM.
The figure for `CCn1cc(CCN2C[C@@H]3C[C@H]2CN3Cc2ccccc2)c2c(O)cc(F)cc21` [31-7, 3-(2-((1S,4S)-5-benzyl-2,5-diazabicyclo[2.2.1]heptan-2-yl)ethyl)-1-ethyl-6-fluoro-1H-indol-4-ol] is 500 to 10000 nM; for `CNCCc1cn(C)c2ccc(F)c(OCCOc3ccccc3)c12` [33-14, 2-(5-fluoro-1-methyl-4-(2-phenoxyethoxy)-1H-indol-3-yl)-N-methylethanamine] it is 1 to 500 nM; for `CCn1cc(CCN(C)C)c2c(OCc3ccsc3)cc(F)cc21` [1-19b, 2-(1-ethyl-6-fluoro-4-(thiophen-3-ylmethoxy)-1H-indol-3-yl)-N,N-dimethylethanamine] it is 1 to 500 nM.
Compound `CCn1cc(CCN(C)C)c2c(Oc3ccccc3N)ccc(F)c21` [2-3, 2-(3-(2-(dimethylamino)ethyl)-1-ethyl-7-fluoro-1H-indol-4-yloxy)aniline] had a half-maximal effective concentration (EC50) of 1 to 500 nM.
Compound `CNCCc1cn(C)c2ccc(F)c(OCCc3ccccc3Cl)c12` [33-19, 2-(4-(2-chlorophenethoxy)-5-fluoro-1-methyl-1H-indol-3-yl)-N-methylethanamine] showed a 50% effective concentration (EC50) of 500 to 10000 nM.
With `CNCCc1cn(C)c2ccc(F)c(OCc3cccc4ccccc34)c12` [33-36, 2-(5-fluoro-1-methyl-4-(naphthalen-1-ylmethoxy)-1H-indol-3-yl)-N-methylethanamine], the EC50 was in the range of 1 to 500 nM.
In turn, `CNCCc1cn(C)c2ccc(F)c(OCCc3ccc(F)cc3)c12` [33-28, 2-(5-fluoro-4-(4-fluorophenethoxy)-1-methyl-1H-indol-3-yl)-N-methylethanamine] yielded an EC50 of 1 to 500 nM.
The figure for `COc1ccc(F)c2c1c(CCN1CCOCC1)cn2C` [11-9, 4-(2-(7-fluoro-4-methoxy-1-methyl-1H-indol-3-yl)ethyl)morpholine] is 1 to 500 nM.
`CNCCc1cn(C)c2ccc(F)c(OCc3cccc(C(F)(F)F)c3)c12` [33-21, 2-(5-fluoro-1-methyl-4-(3-(trifluoromethyl)benzyloxy)-1H-indol-3-yl)-N-methylethanamine] returned an EC50 of 1 to 500 nM.
The figure for `CCn1cc(CCNCc2cccc(Cl)c2)c2c(OCc3ccccc3)cc(F)cc21` [31-9, 2-(4-(benzyloxy)-1-ethyl-6-fluoro-1H-indol-3-yl)-N-(3-chlorobenzyl)ethanamine] is 500 to 10000 nM; for `CCn1cc(CCNCCc2ccccc2)c2c(OC)ccc(F)c21` [20-7, 2-(1-ethyl-7-fluoro-4-methoxy-1H-indol-3-yl)-N-phenethylethanamine] it is 1 to 500 nM.
The result for `CCOc1c(F)ccc2c1c(CCNCc1cccs1)cn2C` [30-28, 2-(4-ethoxy-5-fluoro-1-methyl-1H-indol-3-yl)-N-(thiophen-2-ylmethyl)ethanamine] reads 1 to 500 nM.
For `CCn1cc(CCN(C)C)c2c(OCc3ccccc3C(F)(F)F)cc(F)cc21` [1-13b, 2-(1-ethyl-6-fluoro-4-(2-(trifluoromethyl)benzyloxy)-1H-indol-3-yl)-N,N-dimethylethanamine], the half-maximal effective concentration (EC50) was in the range of 500 to 10000 nM.
The figure for `COc1ccc(C#CCO)c2c1c(CCN(C)C)cn2C` [6-11, 3-(3-(2-(dimethylamino)ethyl)-4-methoxy-1-methyl-1H-indol-7-yl)prop-2-yn-1-ol] is 1 to 500 nM; for `CCn1cc(CCN(C)C)c2c(OCc3ccc(OC)cc3)cc(F)cc21` [1-15b, 2-(1-ethyl-6-fluoro-4-(4-methoxybenzyloxy)-1H-indol-3-yl)-N,N-dimethylethanamine] it is 1 to 500 nM; for `CNCCc1cn(C)c2ccc(F)c(OCc3ccc(S(C)(=O)=O)cc3)c12` [33-38, 2-(5-fluoro-1-methyl-4-(4-(methylsulfonyl)benzyloxy)-1H-indol-3-yl)-N-methylethanamine] it is 1 to 500 nM.
Consider `CCOc1c(F)ccc2c1c(CCNCCc1ccc3c(c1)OCO3)cn2C` [30-26, 2-(benzo[d][1,3]dioxol-5-yl)-N-(2-(4-ethoxy-5-fluoro-1-methyl-1H-indol-3-yl)ethyl)ethanamine], for which the EC50 is 1 to 500 nM.
The result for `COc1ccc(-c2ccccc2)c2c1c(CCN(C)C)cn2C` [6-6, 2-(4-methoxy-1-methyl-7-phenyl-1H-indol-3-yl)-N,N-dimethylethanamine] reads 1 to 500 nM; that for `COc1ccc(Nc2ccccc2)c2c1c(CCN(C)C)cn2C` [6-12, 3-(2-dimethylaminoethyl)-4-methoxy-1-methyl-N-phenyl-1H-indol-7-amine], 1 to 500 nM; that for `CNCCc1cn(C)c2ccc(F)c(OCCc3ccccc3)c12` [33-26, 2-(5-fluoro-1-methyl-4-phenethoxy-1H-indol-3-yl)-N-methylethanamine], 1 to 500 nM.
On to `CCn1cc(CCNCCc2ccccc2)c2c(O)cc(F)cc21` [26-11, 1-ethyl-6-fluoro-3-(2-(phenethylamino)ethyl)-1H-indol-4-ol], for which the EC50 lay within 1 to 500 nM.
For the compound `NCCc1cn(CC2COc3ccccc3O2)c2ccc(F)c(O)c12` (stereo not drawn) [19-5, 3-(2-aminoethyl)-1-((2,3-dihydrobenzo[b][1,4]dioxin-2-yl)methyl)-5-fluoro-1H-indol-4-ol], the half-maximal effective concentration (EC50) was 1 to 500 nM.
For the compound `CCOc1c(F)ccc2c1c(CCNCc1ccccc1C(F)(F)F)cn2C` [30-21, 2-(4-ethoxy-5-fluoro-1-methyl-1H-indol-3-yl)-N-(2-(trifluoromethyl)benzyl)ethanamine], the EC50 was 1 to 500 nM.
The result for `CNCCc1cn(C)c2ccc(F)c(OC(C)c3ccccc3)c12` (stereo not drawn) [33-32, 2-(5-fluoro-1-methyl-4-(1-phenylethoxy)-1H-indol-3-yl)-N-methylethanamine] reads 1 to 500 nM; that for `CCOc1c(F)ccc2c1c(CCNC1CCc3ccccc31)cn2C` (stereo not drawn) [30-19, N-(2-(4-ethoxy-5-fluoro-1-methyl-1H-indol-3-yl)ethyl)-2,3-dihydro-1H-inden-1-amine], 1 to 500 nM.
For `CCCn1cc(CCNC)c2c(OCc3ccc(C)cc3)c(F)ccc21` [33-16, 2-(5-fluoro-4-(4-methylbenzyloxy)-1-propyl-1H-indol-3-yl)-N-methylethanamine], the concentration for a half-maximal effect (EC50) is 1 to 500 nM.
For `CCn1cc(C2CCCN(C)C2)c2c(O)cc(F)cc21` (stereo not drawn) [38-6, 1-ethyl-6-fluoro-3-(1-methylpiperidin-3-yl)-1H-indol-4-ol], the EC50 was in the range of 500 to 10000 nM.
The figure for `CCOc1c(F)ccc2c1c(CCN1CCCC1CO)cn2C` (stereo not drawn) [30-24, (1-(2-(4-ethoxy-5-fluoro-1-methyl-1H-indol-3-yl)ethyl)pyrrolidin-2-yl)methanol] is 500 to 10000 nM.
Take `CCn1cc(CCN2CCOCC2)c2c(O)cc(F)cc21` [11-5, 1-ethyl-6-fluoro-3-(2-morpholinoethyl)-1H-indol-4-ol]: the EC50 was in the range of 1 to 500 nM.
The result for `CCOc1c(F)ccc2c1c(CCN1CCOCC1)cn2C` [30-23, 4-(2-(4-ethoxy-5-fluoro-1-methyl-1H-indol-3-yl)ethyl)morpholine] reads 500 to 10000 nM; that for `CCn1cc(CCNCc2ccccc2)c2c(OCc3ccccc3)cc(F)cc21` [26-7, N-benzyl-2-(4-(benzyloxy)-1-ethyl-6-fluoro-1H-indol-3-yl)ethanamine], 500 to 10000 nM.
`CNCCc1cn(C)c2ccc(F)c(OCc3ccccc3C)c12` [33-22, 2-(5-fluoro-1-methyl-4-(2-methylbenzyloxy)-1H-indol-3-yl)-N-methylethanamine] came in with a concentration for a half-maximal effect (EC50) of 1 to 500 nM.
For `CCn1cc(CCNCc2ccccc2C)c2c(OC)ccc(F)c21` [20-9, 2-(1-ethyl-7-fluoro-4-methoxy-1H-indol-3-yl)-N-(2-methylbenzyl)ethanamine], the EC50 was 1 to 500 nM.
The figure for `CNCCc1cn(C)c2ccc(F)c(OCCc3ccc(OC)cc3)c12` [33-25, 2-(5-fluoro-4-(4-methoxyphenethoxy)-1-methyl-1H-indol-3-yl)-N-methylethanamine] is 1 to 500 nM; for `CCn1cc(CCNCCc2ccccc2)c2c(OCc3ccccc3)cc(F)cc21` [26-9, 2-(4-(benzyloxy)-1-ethyl-6-fluoro-1H-indol-3-yl)-N-phenethylethanamine] it is 500 to 10000 nM; for `CCn1cc(CCNCc2ccccc2)c2c(OC)cc(F)cc21` [39-4, N-benzyl-2-(1-ethyl-6-fluoro-4-methoxy-1H-indol-3-yl)ethanamine] it is 1 to 500 nM.
The figure for `CCOc1c(F)ccc2c1c(CCNCc1cccc(C)c1)cn2C` [30-20, 2-(4-ethoxy-5-fluoro-1-methyl-1H-indol-3-yl)-N-(3-methylbenzyl)ethanamine] is 1 to 500 nM; for `CCn1cc(CCN(C)C)c2c(OCc3ccc(Cl)cc3)cc(F)cc21` [1-10b, 2-(4-(4-chlorobenzyloxy)-1-ethyl-6-fluoro-1H-indol-3-yl)-N,N-dimethylethanamine] it is 500 to 10000 nM; for `CNCCc1cn(C)c2ccc(F)c(OCc3ccccc3F)c12` [33-24, 2-(5-fluoro-4-(2-fluorobenzyloxy)-1-methyl-1H-indol-3-yl)-N-methylethanamine] it is 1 to 500 nM.
The result for `COc1c(F)ccc2c1c(CCNc1cccc(N3CCN(C)CC3)c1)cn2C` [17-18, N-(2-(5-fluoro-4-methoxy-1-methyl-1H-indol-3-yl)ethyl)-3-(4-methylpiperazin-1-yl)aniline] reads 1 to 500 nM.

(Values after patent publication US8912220B2 (priority 2009, dated 2014).)
